US20250346585A1 (Alexion Pharmaceuticals, Inc., priority 2022, published 2025)

The molecules below were run against Human complement C1s enzyme (Homo sapiens (Human), UniProt P09871) (assay: Human C1s enzyme assay). Conditions: Human C1s enzyme assay of Example 3; read-out: IC50 (Stars).
Assay type: biochemical
Procedure, shortened: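 Purified serum-derived human C1s (1.16 nM final) preincubated 5 min at room temperature with compound in 50 mM Tris, 1 M NaCl, pH 7.5. Z-L-Lys-SBzl thioester substrate and DTNB added (100 μM each, final); A405 read every 30 s for 30 min. IC50 from nonlinear regression of reaction rates against compound concentration.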

Sequence of Human complement C1s enzyme (P09871 438-688 limits assumed): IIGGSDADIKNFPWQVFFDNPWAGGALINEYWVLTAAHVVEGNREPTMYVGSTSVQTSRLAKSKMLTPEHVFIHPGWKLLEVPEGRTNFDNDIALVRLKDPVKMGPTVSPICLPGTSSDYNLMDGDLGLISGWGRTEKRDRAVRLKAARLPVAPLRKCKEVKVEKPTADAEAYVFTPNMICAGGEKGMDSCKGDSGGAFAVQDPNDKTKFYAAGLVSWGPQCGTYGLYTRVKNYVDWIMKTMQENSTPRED
Sequence of Human complement C1s enzyme (P09871 16-437 partner limits assumed): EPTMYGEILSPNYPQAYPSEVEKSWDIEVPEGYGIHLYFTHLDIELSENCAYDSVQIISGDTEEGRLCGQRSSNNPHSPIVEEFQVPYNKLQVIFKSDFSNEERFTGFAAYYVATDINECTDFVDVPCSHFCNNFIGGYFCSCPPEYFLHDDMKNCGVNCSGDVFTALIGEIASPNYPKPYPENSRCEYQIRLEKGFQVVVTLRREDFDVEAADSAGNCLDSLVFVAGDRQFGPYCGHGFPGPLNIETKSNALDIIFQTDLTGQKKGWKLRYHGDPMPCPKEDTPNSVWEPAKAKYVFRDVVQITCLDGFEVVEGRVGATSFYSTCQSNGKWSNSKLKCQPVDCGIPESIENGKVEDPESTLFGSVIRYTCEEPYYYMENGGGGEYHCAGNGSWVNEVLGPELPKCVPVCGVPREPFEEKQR

Row | IC50 [nM] | SMILES
1 | < 100 | C[C@@H](NC(=O)[C@@H]1C[C@](F)(COCCCCCCCCCC(=O)O)CN1C(=O)CNC(=O)c1ccc2c(c1)-c1ccccc1C2(F)F)c1cc(C(=N)N)cs1 [Compound 194, 10-(((3R,5S)-5-(((R)-1-(4-carbamimidoylthiophen-2-yl)ethyl)carbamoyl)-1-((9,9-difluoro-9H-fluorene-3-carbonyl)glycyl)-3-fluoropyrrolidin-3-yl)methoxy)decanoic acid]
2 | < 100 | Cc1ccc(-c2ccc(C(=O)NCC(=O)N3CC4(C[C@H]3C(=O)NCc3cc(C(=N)N)cs3)OCCO4)cc2)cc1 [Compound 108, (S)—N-((4-carbamimidoylthiophen-2-yl)methyl)-7-((4′-methyl-[1,1′-biphenyl]-4-carbonyl)glycyl)-1,4-dioxa-7-azaspiro[4.4]nonane-8-carboxamide]
3 | > 1000 | NS(=O)(=O)c1cncc(-c2csc(CNC(=O)[C@@H]3CC4(CN3C(=O)CNC(=O)c3ccc(Oc5ccc(F)cc5)cc3)OCCO4)c2)c1 [Compound 143, (S)-7-((4-(4-fluorophenoxy)benzoyl)glycyl)-N-((4-(5-sulfamoylpyridin-3-yl)thiophen-2-yl)methyl)-1,4-dioxa-7-azaspiro[4.4]nonane-8-carboxamide]
4 | > 1000 | O=C(NCC(=O)N1CC2(C[C@H]1C(=O)NCc1cc(-c3ncc[nH]3)cs1)OCCO2)c1ccc(Oc2ccc(F)cc2)cc1 [Compound 157, (S)-N-((4-(1H-imidazol-2-yl)thiophen-2-yl)methyl)-7-((4-(4-fluorophenoxy)benzoyl)glycyl)-1,4-dioxa-7-azaspiro[4.4]nonane-8-carboxamide]
5 | > 1000 | Nc1cccc(-c2csc(CNC(=O)[C@@H]3CC4(CN3C(=O)CNC(=O)c3ccc(Oc5ccc(F)cc5)cc3)OCCO4)c2)n1 [Compound 103, (S)—N-((4-(6-aminopyridin-2-yl)thiophen-2-yl)methyl)-7-((4-(4-fluorophenoxy)benzoyl)glycyl)-1,4-dioxa-7-azaspiro[4.4]nonane-8-carboxamide]
6 | < 100 | N=C(N)c1csc(CNC(=O)[C@@H]2C[C@@H](OC(F)F)CN2C(=O)CNC(=O)c2ccc(Oc3ccc(F)cc3)cc2)c1 [Compound 3, (2S,4R)—N-((4-carbamimidoylthiophen-2-yl)methyl)-4-(difluoromethoxy)-1-((4-(4-fluorophenoxy)benzoyl)glycyl)pyrrolidine-2-carboxamide]
7 | < 100 | Cc1cc(C(=O)NCC(=O)N2C[C@@](F)(CF)C[C@H]2C(=O)N[C@H](C)c2cc(C(=N)N)cs2)ccc1Oc1ccccc1 [Compound 32, (2S,4R)—N—((R)-1-(4-carbamimidoylthiophen-2-yl)ethyl)-4-fluoro-4-(fluoromethyl)-1-((3-methyl-4-phenoxybenzoyl)glycyl)pyrrolidine-2-carboxamide]
8 | < 100 | N=C(N)c1csc(CNC(=O)[C@@H]2CC3(CN2C(=O)CNC(=O)c2ncc(-c4ccccc4)cc2F)OCCO3)c1 [Compound 105, (S)—N-((4-carbamimidoylthiophen-2-yl)methyl)-7-((3-fluoro-5-phenylpicolinoyl)glycyl)-1,4-dioxa-7-azaspiro[4.4]nonane-8-carboxamide]
9 | < 100 | C[C@@H](NC(=O)[C@@H]1C[C@](F)(CF)CN1C(=O)CNC(=O)c1ccc(Oc2ccc(F)cc2)cc1)c1ccc(C(=N)N)s1 [Compound 40, (2S,4R)—N—((R)-1-(5-carbamimidoylthiophen-2-yl)ethyl)-4-fluoro-4-(fluoromethyl)-1-((4-(4-fluorophenoxy)benzoyl)glycyl)pyrrolidine-2-carboxamide]
10 | < 100 | N=C(N)c1csc(CNC(=O)[C@@H]2CC3(CN2C(=O)CNC(=O)c2ccc(-c4ccc(F)cc4)cc2)OCCO3)c1 [Compound 73, (S)—N-((4-carbamimidoylthiophen-2-yl)methyl)-7-((4′-fluoro-[1,1′-biphenyl]-4-carbonyl)glycyl)-1,4-dioxa-7-azaspiro[4.4]nonane-8-carboxamide]
11 | < 100 | C[C@@H](NC(=O)[C@@H]1C[C@@H](OC(F)F)CN1C(=O)CNC(=O)c1ccc2c(c1)-c1ccccc1C2(C)C)c1cc(C(=N)N)cs1 [Compound 132, (2S,4R)—N—((R)-1-(4-carbamimidoylthiophen-2-yl)ethyl)-4-(difluoromethoxy)-1-((9,9-dimethyl-9H-fluorene-3-carbonyl)glycyl)pyrrolidine-2-carboxamide]

Row | SMILES | IC50 [nM]
12 | COc1ccc2c(c1)C(F)(F)c1ccc(C(=O)NCC(=O)N3CC4(C[C@H]3C(=O)N[C@H](C)c3cc(C(=N)N)cs3)OCCO4)cc1-2 [Compound 191, (S)—N—((R)-1-(4-carbamimidoylthiophen-2-yl)ethyl)-7-((9,9-difluoro-7-methoxy-9H-fluorene-3-carbonyl)glycyl)-1,4-dioxa-7-azaspiro[4.4]nonane-8-carboxamide] | < 100

Same assay, conditions: Human complement C1s enzyme 1.16 nM, substrate Z-L-Lys-SBzl 100 μM, assay of Example 3; read-out: IC50 (Stars)

Row | IC50 [nM] | SMILES
13 | < 100 | C[C@@H](NC(=O)[C@@H]1C[C@](F)(CF)CN1C(=O)CNC(=O)c1cccc(-c2ccc(F)cc2)c1)c1cc(C(=N)N)cs1 [Compound 329, (2S,4R)—N—((R)-1-(4-carbamimidoylthiophen-2-yl)ethyl)-4-fluoro-1-((4′-fluoro-[1,1′-biphenyl]-3-carbonyl)glycyl)-4-(fluoromethyl)pyrrolidine-2-carboxamide]
14 | < 100 | CC1c2ccccc2-c2ccc(C(=O)NCC(=O)N3C[C@H](S(C)(=O)=O)C[C@H]3C(=O)N[C@H](C)c3cc(C(=N)N)cs3)cc21 (stereo partly drawn) [Compound 390, (2S,4R)—N—((R)-1-(4-carbamimidoylthiophen-2-yl)ethyl)-1-((9-methyl-9H-fluorene-2-carbonyl)glycyl)-4-(methylsulfonyl)pyrrolidine-2-carboxamide]
15 | < 100 | C[C@@H](NC(=O)[C@@H]1CC2(CN1C(=O)CNC(=O)c1ccc3c(c1)Sc1ccccc1O3)OCCO2)c1cc(C(=N)N)cs1 [Compound 312, (S)—N—((R)-1-(4-carbamimidoylthiophen-2-yl)ethyl)-7-((phenoxathiine-2-carbonyl)glycyl)-1,4-dioxa-7-azaspiro[4.4]nonane-8-carboxamide]
16 | < 100 | COC[C@@]1(F)C[C@@H](C(=O)N[C@H](C)c2cc(C(=N)N)cs2)N(C(=O)CNC(=O)c2ccc3c(c2)C(F)(F)c2ccccc2-3)C1 [Compound 264, (2S,4R)—N—((R)-1-(4-carbamimidoylthiophen-2-yl)ethyl)-1-((9,9-difluoro-9H-fluorene-2-carbonyl)glycyl)-4-fluoro-4-(methoxymethyl)pyrrolidine-2-carboxamide]
17 | 100 to 1000 | C[C@@]12C[C@@H]1N(C(=O)CNC(=O)c1ccc(Oc3ccccc3)cc1)[C@H](C(=O)NCc1cc3c(s1)C(N)=NCC3)C2 [Compound 293, (1S,3S,5S)—N-((7-amino-4,5-dihydrothieno[2,3-c]pyridin-2-yl)methyl)-5-methyl-2-((4-phenoxybenzoyl)glycyl)-2-azabicyclo[3.1.0]hexane-3-carboxamide]
18 | > 1000 | O=C(NCC(=O)N1CC2(C[C@H]1C(=O)NCc1cc(NCCO)cs1)OCCO2)c1ccc(Oc2ccc(F)cc2)cc1 [Compound 308, (S)-7-((4-(4-fluorophenoxy)benzoyl)glycyl)-N-((4-((2-hydroxyethyl)amino)thiophen-2-yl)methyl)-1,4-dioxa-7-azaspiro[4.4]nonane-8-carboxamide]
19 | < 100 | C[C@@H](NC(=O)[C@@H]1CC2(CN1C(=O)CNC(=O)c1ccc3sc4ccccc4c3c1)OCCO2)c1cc(C(=N)N)cs1 [Compound 254, (S)—N—((R)-1-(4-carbamimidoylthiophen-2-yl)ethyl)-7-((dibenzo[b,d]thiophene-2-carbonyl)glycyl)-1,4-dioxa-7-azaspiro[4.4]nonane-8-carboxamide]
20 | < 100 | COC[C@@]1(F)C[C@@H](C(=O)N[C@H](C)c2cc(C(=N)N)cs2)N(C(=O)CNC(=O)c2cccc(-c3ccc(F)cc3)c2)C1 [Compound 364, (2S,4R)—N—((R)-1-(4-carbamimidoylthiophen-2-yl)ethyl)-4-fluoro-1-((4′-fluoro-[1,1′-biphenyl]-3-carbonyl)glycyl)-4-(methoxymethyl)pyrrolidine-2-carboxamide]
21 | < 100 | C[C@@H](NC(=O)[C@@H]1C[C@@H](S(=O)(=O)C2CC2)CN1C(=O)CNC(=O)c1ccc2c(c1)-c1ccccc1C2(F)F)c1cc(C(=N)N)cs1 [Compound 351, (2S,4R)—N—((R)-1-(4-carbamimidoylthiophen-2-yl)ethyl)-4-(cyclopropylsulfonyl)-1-((9,9-difluoro-9H-fluorene-3-carbonyl)glycyl)pyrrolidine-2-carboxamide]
22 | < 100 | N=C(N)c1csc(CNC(=O)[C@@H]2CC3(CN2C(=O)CNC(=O)c2ccc(-c4ccccc4)o2)OCCO3)c1 [Compound 297, (S)—N-((4-carbamimidoylthiophen-2-yl)methyl)-7-((5-phenylfuran-2-carbonyl)glycyl)-1,4-dioxa-7-azaspiro[4.4]nonane-8-carboxamide]

The next lines start with the molecule.

Row | SMILES | IC50 [nM]
23 | COC[C@@]1(F)C[C@@H](C(=O)N[C@H](C)c2cc(C(=N)N)cs2)N(C(=O)CNC(=O)c2ccc3cc4ccccc4cc3c2)C1 [Compound 224, (2S,4R)-1-[2-(anthracen-2-ylformamido)acetyl]-N-[(1R)-1-(4-carbamimidoylthiophen-2-yl)ethyl]-4-fluoro-4-(methoxymethyl)pyrrolidine-2-carboxamide] | < 100
24 | N=C(N)c1csc([C@H](NC(=O)[C@@H]2CC3(CN2C(=O)CNC(=O)c2ccc4c(c2)-c2ccccc2C4(F)F)OCCO3)C(F)(F)F)c1 (single isomer, unassigned) [Compound 246, (S)—N—((R*)-1-(4-carbamimidoylthiophen-2-yl)-2,2,2-trifluoroethyl)-7-((9,9-difluoro-9H-fluorene-3-carbonyl)glycyl)-1,4-dioxa-7-azaspiro[4.4]nonane-8-carboxamide] | < 100
25 | CO[C@@H]1C[C@@H](C(=O)N[C@H](C)c2cc(C(=N)N)cs2)N(C(=O)CNC(=O)c2ccc3oc4ccccc4c3c2)C1 [Compound 221, (2S,4R)—N—((R)-1-(4-carbamimidoylthiophen-2-yl)ethyl)-1-((dibenzo[b,d]furan-2-carbonyl)glycyl)-4-methoxypyrrolidine-2-carboxamide] | < 100
